This is an account of results in US10752656B2, “Anti-microbial supramolecular structures” (Northwestern University, priority 2016, dated 2020).

One data set has as its system Staphylococcus aureus. The class given is cell-based. As for the experimental part: S. aureus (ATCC 25923) (American Type Culture Collection, Manassas, Va.) was cultured in LB broth overnight at 37° C. The suspension of the overnight culture was inoculated in fresh LB broth and cultured under aerobic conditions until reaching an OD600 value of approximately 0.5 (exponential growth phase). The bacterial cells were harvested by centrifugation at 1,500×g for 10 min, washed thrice with PBS, and re-suspended in the appropriate solution for experiment. The bacterial cell suspensions were diluted to an OD600 value of 0.1, which corresponds to 1×10^7 CFU/mL for S. aureus. Before experiment, the bacterial cells were then diluted 1:10 with PBS unless otherwise noted.
The MIC values of peptide amphiphiles were determined in PBS. The MIC determination was made by the Mueller-Hinton (MH) agar plate method. Two-fold serial dilutions of test compound (peptide amphiphiles) solutions in PBS were firstly made in a 96-well microtiter plate. The test compound concentration ranged from 500 μM to 1 μM with 50 μL volume. Then, 50 μL of S. aureus (1×10^6 CFU/mL) suspended in PBS was added to each well for a final cell density of 5×10^5 CFU/mL. The samples were incubated for 3 hrs at 37° C., and then streaked onto MH agar plates. The plates were incubated overnight at 37° C. and the MIC value was recorded based on the lowest test compound concentration that inhibited colony growth.
The minimum inhibitory concentration (MIC) of the PAs against Staphylococcus aureus was determined to estimate their bioactivity as antimicrobial agents. The bacterial cell density is 5×10^5 CFU/mL, and the concentration of the PA solutions is ranging from 0.3 μM to 500 μM. […], the MIC value for PAs Z1 and Z2 was determined to be 4 μM, while inhibition of the growth of the bacterium after treatment by parent PA and PA Z3 at 500 μM was not observed.

A short description of data set [1]: Rheological experiment on PA gels formed with CaCl2. The class given is physicochemical. Particulars: 5 mM PA gelled with 0.2 M CaCl2, 100 Hz, 0.5% strain, 25° C. As for the experimental part: The mechanical property of the PAs was evaluated by performing rheological studies. 25 μL of 0.2 M CaCl2 were added to gel 250 μL of 5 mM PA MilliQ-water solution aged for 2 days on the rheometer. Tests were performed at 100 Hz with 0.5% strain at 25° C., using a 25 mm parallel plate with a 0.5 mm gap distance. The storage moduli used were taken from the time test at 5000 seconds. Frequency sweeps were done at a constant strain of 0.5%, and strain sweeps were done at a frequency of 100 Hz. The plateau modulus was determined as 10, 7.5, 7.5, and 2.8 kPa for parent PA, PA Z1, Z2, and Z3, respectively.

SMILES strings stand for the structures. ≈ marks a conversion by molar mass, not a printed value. Non-standard residues stand in square brackets, D forms with d. Residues, ends and D or L forms follow the SMILES beside them. *: point of attachment. Phe(F5) = N[C@@H](Cc1c(F)c(F)c(F)c(F)c1F)C(=O)O; Palmitoyl = CCCCCCCCCCCCCCCC(=O)*

As to `CCCCCCCCCCCCCCCC(=O)N[C@H](C(=O)N[C@@H](Cc1c(F)c(F)c(F)c(F)c1F)C(=O)N[C@H](C(=O)N[C@@H](C)C(=O)N[C@@H](C)C(=O)N[C@@H](C)C(=O)N[C@@H](CCC(=O)O)C(=O)N[C@@H](CCC(=O)O)C(=O)N[C@@H](CCC(=O)O)C(N)=O)C(C)C)C(C)C` [PA Z2] (Palmitoyl-V[Phe(F5)]VAAAEEE-NH2; C-terminus assumed), the “minimum inhibitory concentration (MIC)” value in the data set on Staphylococcus aureus is 4 µM (≈ 5.17 µg/mL). For the same compound, in data set [1], the plateau modulus was found to be 7.5 kPa.
In the same order, the values of `CCCCCCCCCCCCCCCC(=O)N[C@@H](Cc1c(F)c(F)c(F)c(F)c1F)C(=O)N[C@H](C(=O)N[C@H](C(=O)N[C@@H](C)C(=O)N[C@@H](C)C(=O)N[C@@H](C)C(=O)N[C@@H](CCC(=O)O)C(=O)N[C@@H](CCC(=O)O)C(=O)N[C@@H](CCC(=O)O)C(N)=O)C(C)C)C(C)C` [PA Z1] (Palmitoyl-[Phe(F5)]VVAAAEEE-NH2; C-terminus assumed) are 4 µM (≈ 5.17 µg/mL) and 7.5 kPa.
In the same order, the values of `CCCCCCCCCCCCCCCC(=O)N[C@H](C(=O)N[C@H](C(=O)N[C@@H](Cc1c(F)c(F)c(F)c(F)c1F)C(=O)N[C@@H](C)C(=O)N[C@@H](C)C(=O)N[C@@H](C)C(=O)N[C@@H](CCC(=O)O)C(=O)N[C@@H](CCC(=O)O)C(=O)N[C@@H](CCC(=O)O)C(N)=O)C(C)C)C(C)C` [PA Z3] (Palmitoyl-VV[Phe(F5)]AAAEEE-NH2; C-terminus assumed) are greater than 500 µM and 2.8 kPa.
Take `CCCCCCCCCCCCCCCC(=O)N[C@H](C(=O)N[C@H](C(=O)N[C@H](C(=O)N[C@@H](C)C(=O)N[C@@H](C)C(=O)N[C@@H](C)C(=O)N[C@@H](CCC(=O)O)C(=O)N[C@@H](CCC(=O)O)C(=O)N[C@@H](CCC(=O)O)C(N)=O)C(C)C)C(C)C)C(C)C` [parent PA, reference compound] (Palmitoyl-VVVAAAEEE-NH2; C-terminus assumed): in the data set on Staphylococcus aureus, the “minimum inhibitory concentration (MIC)” value was greater than 500 µM. The plateau modulus in data set [1] is 10 kPa.
